Drawing on US10640506B2, “Cyclobutyl substituted pyrrolopyridine and pyrrolopyrimidines derivatives as JAK inhibitors” (Incyte Corporation, priority 2010, dated 2020), this text covers IC50 for 18 molecules.

Bounds are passed on as bounds.

One test has as its target T1, JAK2 (a.a. 828-1132) (Homo sapiens, UniProt O60674).
T1 construct: JAK2 (a.a. 828-1132); His tag (N)
Nature of the test: In vitro JAK kinase assay (HTRF, phosphorylation of biotinylated peptide), JAK2. The settings on record: Table F; 1 mM ATP. It is filed as biochemical. The gist of the method: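 His-tagged catalytic domains of human JAK1 (a.a. 837-1142) and JAK2 (a.a. 828-1132), baculovirus-expressed, phosphorylate a biotinylated peptide for 1 hour at room temperature. Stopped with EDTA; detected by HTRF using SA-APC and Eu-Py20 antibody after 40 min binding; values binned as ranges.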
(In general: Time-resolved FRET reads energy transfer from a long-lived donor to a nearby acceptor.)

Test [1] has as its target human JAK1 (a.a. 837-1142) (Homo sapiens, UniProt P23458). As to the kind of experiment: In vitro JAK kinase assay (HTRF, phosphorylation of biotinylated peptide), JAK1. In kind it is biochemical. The settings on record: Table F; 1 mM ATP. The gist of the method:
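His-tagged human JAK1 catalytic domain (a.a. 837-1142), baculovirus/insect-cell expressed, phosphorylates a biotinylated peptide for 1 h at room temperature. Reaction stopped with EDTA; product detected by HTRF (SA-APC, Eu-Py20, 40 min binding). IC50 reported as ranges.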

Chain of human JAK1 (a.a. 837-1142) (P23458 849-1154): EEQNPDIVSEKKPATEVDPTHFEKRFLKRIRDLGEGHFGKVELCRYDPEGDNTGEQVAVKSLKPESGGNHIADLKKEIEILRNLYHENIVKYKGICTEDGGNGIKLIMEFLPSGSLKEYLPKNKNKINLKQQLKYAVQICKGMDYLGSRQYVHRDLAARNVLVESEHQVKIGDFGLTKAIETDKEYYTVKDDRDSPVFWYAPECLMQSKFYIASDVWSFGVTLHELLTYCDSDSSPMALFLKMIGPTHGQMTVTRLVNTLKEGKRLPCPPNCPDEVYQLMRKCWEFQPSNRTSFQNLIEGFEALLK
T1 sequence (O60674 828-1132): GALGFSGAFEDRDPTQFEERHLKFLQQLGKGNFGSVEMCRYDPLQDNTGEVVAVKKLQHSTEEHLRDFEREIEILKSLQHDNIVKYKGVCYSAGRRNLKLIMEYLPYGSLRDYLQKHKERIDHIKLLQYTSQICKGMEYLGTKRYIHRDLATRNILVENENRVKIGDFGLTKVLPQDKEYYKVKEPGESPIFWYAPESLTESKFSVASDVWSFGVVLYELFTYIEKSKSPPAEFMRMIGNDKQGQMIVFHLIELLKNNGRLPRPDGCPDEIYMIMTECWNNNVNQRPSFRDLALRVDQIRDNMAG

Consider `C[C@H](NC(=O)N1CCN([C@H]2C[C@](CC#N)(n3cc(-c4ncnc5[nH]ccc45)cn3)C2)CC1)C1CC1` [Example 96, 4-{trans-3-(cyanomethyl)-3-[4-(7H-pyrrolo[2,3-d]pyrimidin-4-yl)-1H-pyrazol-1-yl]cyclobutyl}-N-[(1S)-1-cyclopropylethyl]piperazine-1-carboxamide], for which the IC50 against JAK2 (a.a. 828-1132) was 25 to 100 nM; in test [1], less than 10 nM.

On to `C[C@@H](NC(=O)N1CCN([C@H]2C[C@](CC#N)(n3cc(-c4ncnc5[nH]ccc45)cn3)C2)CC1)C1CC1` [Example 97, 4-{trans-3-(cyanomethyl)-3-[4-(7H-pyrrolo[2,3-d]pyrimidin-4-yl)-1H-pyrazol-1-yl]cyclobutyl}-N-[(1R)-1-cyclopropylethyl]piperazine-1-carboxamide], for which the IC50 against JAK2 (a.a. 828-1132) is 25 to 100 nM; in test [1], less than 10 nM.

With `N#CC[C@]1(n2cc(-c3ncnc4[nH]ccc34)cn2)C[C@H](N2CCN(C(=O)NC3CC3)CC2)C1` [Example 98, 4-{trans-3-(cyanomethyl)-3-[4-(7H-pyrrolo[2,3-d]pyrimidin-4-yl)-1H-pyrazol-1-yl]cyclobutyl}-N-cyclopropylpiperazine-1-carboxamide], the half-maximal inhibitory concentration (IC50) against JAK2 (a.a. 828-1132) was more than 100 nM; in test [1], less than 10 nM.

As for `N#CC[C@]1(n2cc(-c3ncnc4[nH]ccc34)cn2)C[C@H](N2CCN(C(=O)NC3CCC3)CC2)C1` [Example 99, 4-{trans-3-(cyanomethyl)-3-[4-(7H-pyrrolo[2,3-d]pyrimidin-4-yl)-1H-pyrazol-1-yl]cyclobutyl}-N-cyclobutylpiperazine-1-carboxamide], the IC50 at JAK2 (a.a. 828-1132) was 25 to 100 nM; in test [1] it was less than 10 nM.

Consider `CC(C)(C)CNC(=O)N1CCN([C@H]2C[C@](CC#N)(n3cc(-c4ncnc5[nH]ccc45)cn3)C2)CC1` [Example 100, 4-{trans-3-(cyanomethyl)-3-[4-(7H-pyrrolo[2,3-d]pyrimidin-4-yl)-1H-pyrazol-1-yl]cyclobutyl}-N-(2,2-dimethylpropyl)piperazine-1-carboxamide], for which the IC50 against JAK2 (a.a. 828-1132) is more than 100 nM; in test [1] it was 10 to 25 nM.

Consider `CC(C)CNC(=O)N1CCN([C@H]2C[C@](CC#N)(n3cc(-c4ncnc5[nH]ccc45)cn3)C2)CC1` [Example 101, 4-{trans-3-(cyanomethyl)-3-[4-(7H-pyrrolo[2,3-d]pyrimidin-4-yl)-1H-pyrazol-1-yl]cyclobutyl}-N-isobutylpiperazine-1-carboxamide], for which the results for the IC50 (against JAK2 (a.a. 828-1132); in test [1]) were 25 to 100 nM and less than 10 nM, respectively.

For the molecule `CC[C@@H](C)NC(=O)N1CCN([C@H]2C[C@](CC#N)(n3cc(-c4ncnc5[nH]ccc45)cn3)C2)CC1` [Example 102, 4-{trans-3-(cyanomethyl)-3-[4-(7H-pyrrolo[2,3-d]pyrimidin-4-yl)-1H-pyrazol-1-yl]cyclobutyl}-N-[(1R)-1-methylpropyl]piperazine-1-carboxamide], the IC50 is 25 to 100 nM against JAK2 (a.a. 828-1132) and less than 10 nM in test [1].

Take `CC[C@H](C)NC(=O)N1CCN([C@H]2C[C@](CC#N)(n3cc(-c4ncnc5[nH]ccc45)cn3)C2)CC1` [Example 103, 4-{trans-3-(cyanomethyl)-3-[4-(7H-pyrrolo[2,3-d]pyrimidin-4-yl)-1H-pyrazol-1-yl]cyclobutyl}-N-[(1S)-1-methylpropyl]piperazine-1-carboxamide]: the IC50 against JAK2 (a.a. 828-1132) is 25 to 100 nM; in test [1], less than 10 nM.

For the molecule `N#CC[C@]1(n2cc(-c3ncnc4[nH]ccc34)cn2)C[C@@H](N2CCN(C(=O)NC3CCC3)CC2)C1` [Example 104, 4-{cis-3-(cyanomethyl)-3-[4-(7H-pyrrolo[2,3-d]pyrimidin-4-yl)-1H-pyrazol-1-yl]cyclobutyl}-N-cyclobutylpiperazine-1-carboxamide], the concentration for half-maximal inhibition (IC50) was more than 100 nM against JAK2 (a.a. 828-1132) and 10 to 25 nM in test [1].

Regarding `CC[C@@H](C)NC(=O)N1CCN([C@H]2C[C@@](CC#N)(n3cc(-c4ncnc5[nH]ccc45)cn3)C2)CC1` [Example 105, 4-{cis-3-(cyanomethyl)-3-[4-(7H-pyrrolo[2,3-d]pyrimidin-4-yl)-1H-pyrazol-1-yl]cyclobutyl}-N-[(1R)-1-methylpropyl]piperazine-1-carboxamide], the results for the 50% inhibitory concentration (IC50) (at JAK2 (a.a. 828-1132); in test [1]) were 25 to 100 nM and 10 to 25 nM, respectively.

Turning to `CC[C@H](C)NC(=O)N1CCN([C@H]2C[C@@](CC#N)(n3cc(-c4ncnc5[nH]ccc45)cn3)C2)CC1` [Example 106, 4-{cis-3-(cyanomethyl)-3-[4-(7H-pyrrolo[2,3-d]pyrimidin-4-yl)-1H-pyrazol-1-yl]cyclobutyl}-N-[(1S)-1-methylpropyl]piperazine-1-carboxamide], the concentration for half-maximal inhibition (IC50) was more than 100 nM on JAK2 (a.a. 828-1132) and 10 to 25 nM in test [1].

Consider `N#CC[C@]1(n2cc(-c3ncnc4[nH]ccc34)cn2)C[C@@H](N2CCN(C(=O)NC3CC3)CC2)C1` [Example 107, 4-{cis-3-(cyanomethyl)-3-[4-(7H-pyrrolo[2,3-d]pyrimidin-4-yl)-1H-pyrazol-1-yl]cyclobutyl}-N-cyclopropylpiperazine-1-carboxamide], for which the IC50 was more than 100 nM against JAK2 (a.a. 828-1132) and 10 to 25 nM in test [1].

Take `CC(C)NC(=O)N1CCN([C@H]2C[C@@](CC#N)(n3cc(-c4ncnc5[nH]ccc45)cn3)C2)CC1` [Example 108, 4-{cis-3-(cyanomethyl)-3-[4-(7H-pyrrolo[2,3-d]pyrimidin-4-yl)-1H-pyrazol-1-yl]cyclobutyl}-N-isopropylpiperazine-1-carboxamide]: the 50% inhibitory concentration (IC50) against JAK2 (a.a. 828-1132) was more than 100 nM; in test [1], 10 to 25 nM.

In the case of `N#CC[C@]1(n2cc(-c3ncnc4[nH]ccc34)cn2)C[C@@H](N2CCN(C(=O)NC3CCCC3)CC2)C1` [Example 109, 4-{cis-3-(cyanomethyl)-3-[4-(7H-pyrrolo[2,3-d]pyrimidin-4-yl)-1H-pyrazol-1-yl]cyclobutyl}-N-cyclopentylpiperazine-1-carboxamide], the half-inhibitory concentration (IC50) at JAK2 (a.a. 828-1132) was 25 to 100 nM; in test [1], less than 10 nM.

In the case of `CC(C)[C@@H](C)NC(=O)N1CCN([C@H]2C[C@@](CC#N)(n3cc(-c4ncnc5[nH]ccc45)cn3)C2)CC1` [Example 110, 4-{cis-3-(cyanomethyl)-3-[4-(7H-pyrrolo[2,3-d]pyrimidin-4-yl)-1H-pyrazol-1-yl]cyclobutyl}-N-[(1R)-1,2-dimethylpropyl]piperazine-1-carboxamide], the results for the IC50 (against JAK2 (a.a. 828-1132); in test [1]) were more than 100 nM and less than 10 nM, respectively.

With `CC(C)[C@H](C)NC(=O)N1CCN([C@H]2C[C@@](CC#N)(n3cc(-c4ncnc5[nH]ccc45)cn3)C2)CC1` [Example 111, 4-{cis-3-(cyanomethyl)-3-[4-(7H-pyrrolo[2,3-d]pyrimidin-4-yl)-1H-pyrazol-1-yl]cyclobutyl}-N-[(1S)-1,2-dimethylpropyl]piperazine-1-carboxamide], the IC50 is more than 100 nM against JAK2 (a.a. 828-1132) and 10 to 25 nM in test [1].

As for `CNC(=O)N1CCN([C@H]2C[C@](CC#N)(n3cc(-c4ncnc5[nH]ccc45)cn3)C2)CC1` [Example 112, 4-{trans-3-(cyanomethyl)-3-[4-(7H-pyrrolo[2,3-d]pyrimidin-4-yl)-1H-pyrazol-1-yl]cyclobutyl}-N-methylpiperazine-1-carboxamide], the values for the concentration for half-maximal inhibition (IC50) (on JAK2 (a.a. 828-1132); in test [1]) were 25 to 100 nM and 10 to 25 nM, respectively.

Regarding `C[C@@H](NC(=O)N1CCN([C@H]2C[C@](CC#N)(n3cc(-c4ncnc5[nH]ccc45)cn3)C2)CC1)C(F)(F)F` [Example 113, 4-{trans-3-(cyanomethyl)-3-[4-(7H-pyrrolo[2,3-d]pyrimidin-4-yl)-1H-pyrazol-1-yl]cyclobutyl}-N-[(1R)-2,2,2-trifluoro-1-methylethyl]piperazine-1-carboxamide], the half-inhibitory concentration (IC50) was more than 100 nM against JAK2 (a.a. 828-1132) and less than 10 nM in test [1].

One may read the IC50 as the midpoint of a concentration-inhibition curve. Lower therefore signals greater potency in that assay.
